Tests used:
[1] = system: HEPG2 cells; conditions: FCCP 100 μM; ISFET chip device 2 with microwells; not all cells showed efflux
Procedure: A sensor array device of the present disclosure, such as sensor array device 500 of FIG. 2, has an open structure, thereby allowing the HEPG2 cells to be cultured on the sensor surface in ^˜1 mL of cell culture media. The device was sterilized with 70% Ethanol in water, rinsed and prepared with 100 μg/mL poly-D-lysine in phosphate buffered saline prior to adding cells to facilitate cell adhesion to a chip device surface as depicted in FIG. 5B.
For plating on the sensor array device, the HEPG2 cells were harvested from culture, resuspended at 2.5×10^5 cells per mL in complete cell culture medium (composed of Minimum Essential Medium, MEM, Thermo Fisher Scientific catalog number 11095080) plus 10% Fetal Calf Serum (FCS, Thermo Fisher Scientific Catalog number A3160401) and plated onto the sensor array device for overnight incubation in a cell culture incubator under standard conditions at 37° C. with 95% humidity and 5% carbon dioxide in room air atmosphere. […] Cells were then allowed to adhere to the prepared surface of the sensor array device and grow overnight or longer before microscopic analysis of morphology and qualitative assessment of viability. […]

[2] = system: HEPG2 cells; test: Label-free metabolic profiling (glucose restriction / glucose reintroduction) on ChemFET sensor array, HEPG2 cells; assay type: cell-based, human
Text: FIG. 18A through FIG. 18B are graphs of data collected during metabolic profiling studies using HEPG2 cells (ATCC-HB-8065), while FIG. 19A and FIG. 19B are graphs of data collected during metabolic profiling studies using A673 cells (ECACC 85111504). FIG. 18A through FIG. 18B are temporal response graphs of counts equivalent to protons (CEP) in microvolts (μV) versus time. As will be described in more detail herein, the pharmacological dissection of metabolic profiling can be performed to understand the contribution of oxidative metabolism and glycolytic metabolism to metabolic profiling. Accordingly, chemical agents, such as oligomycin, antimycin A, rotenone and metformin can used to understand a contribution of oxidative metabolism to cellular response in a metabolic profiling study, while chemical agents, such as 2-deoxy-D-glucose, koningic acid, fasentin, and AM2394 can used to understand a contribution of glycolytic metabolism to cellular response in a metabolic profiling study.
The chip devices used in the studies were ISFET chip devices selective for sensing hydrogen ions, and were chip devices such as chip device 1 of 1 of Table 1. Given that the analyses performed were for metabolic profiling, chip devices with microwells were selected as depicted for chip device 500B of FIG. 5C. […]
(§1) Prior to seeding the devices with cells, each chip device in open format, such as open format chip device 500 of FIG. 2, and were soaked for 30 minutes with 70% ethanol in water, then rinsed with PBS and then rinsed twice with 1.5 mL of a cell culture medium, for example, Dulbecco's Modified […] Medium (DMEM; Gibco™ catalog #11995-065), Minimal Essential Medium (MEM; Gibco™ catalog #11095-080) or McCoy's 5A modified medium (Gibco™ catalog #12330-031). […] After rinsing with the cell culture medium, the devices were ready for addition to each device of a suspension of cells at a density between 5,000 to 30,000 cells in 1 to 1.5 mL of a cell culture medium, pH 7.4. […]

[3] = system: A673 cells; test: Label-free metabolic profiling (glucose restriction / glucose reintroduction) on ChemFET sensor array, A673 cells; assay type: cell-based; conditions: 5 μM koningic acid pretreatment during glucose restriction; 5 mM glucose reintroduction; FIG. 19A/19B
Text: FIG. 18A through FIG. 18B are graphs of data collected during metabolic profiling studies using HEPG2 cells (ATCC-HB-8065), while FIG. 19A and FIG. 19B are graphs of data collected during metabolic profiling studies using A673 cells (ECACC 85111504). FIG. 18A through FIG. 18B are temporal response graphs of counts equivalent to protons (CEP) in microvolts (μV) versus time. As will be described in more detail herein, the pharmacological dissection of metabolic profiling can be performed to understand the contribution of oxidative metabolism and glycolytic metabolism to metabolic profiling. […]
as §1

[4] = system: A673 cells; test: Control microscopy with calcein acetoxymethyl (AM) ester live-cell indicator, A673 cells; assay type: cell-based; conditions: 5 μM koningic acid treated cells, after experiment of FIG. 19B
Procedure: (§2) After completion of each experiment represented by FIG. 18A and FIG. 18B for the HEPG2 cells, and by FIG. 19A and FIG. 19B for the A673 cells, control microscopy studies using calcein acetoxymethyl (AM) ester, a known fluorescent indicator of live cells, were performed. […] These control microscopy studies confirmed that what was observed using the ChemFET-based cell analysis system to perform the studies represented by FIG. 18A through FIG. 19B for both HEPG2 and A673 cells were observed using live cells.

[5] = system: HEPG2 cells; test: Control microscopy with calcein acetoxymethyl (AM) ester live-cell indicator, HEPG2 cells; assay type: cell-based, human; conditions: 5 μM koningic acid treated cells, after experiment of FIG. 18B
Procedure: as §2

N#CC(C#N)=NNc1ccc(OC(F)(F)F)cc1 [FCCP, carbonyl cyanide-4-(trifluoromethoxy) phenylhydrazone]
cellular response observed in electroscopic image [1]: efflux of cellular contents

O=CC[C@@H](O)[C@H](O)[C@H](O)CO [2-deoxy-D-glucose]
averaged temporal response, counts equivalent to protons (CEP) versus time ([2]; 50 mM 2-deoxy-D-glucose introduced at 371 seconds after oligomycin, control without koningic acid, FIG. 18A): attenuated

CC(C)[C@H]1CC[C@@]2(CO2)[C@H]2C(=O)OCC(C(=O)O)=C[C@H]12 [koningic acid]
averaged temporal response (CEP) to glucose reintroduction with and without koningic acid [3]: comparable to the results using HEPG2 cells | acute toxicity, calcein staining profile versus control vehicle treated cultures [4]: no acute toxicity | acute toxicity, calcein staining profile versus control vehicle treated cultures [5]: no acute toxicity | averaged temporal response, counts equivalent to protons (CEP) versus time ([2]; 5 μM koningic acid pretreatment during glucose restriction, two to three hours, then glucose, oligomycin, 2-deoxy-D-glucose, FIG. 18B): no change in the averaged signal

CC[C@H]1/C=C/C=C/C[C@@H](C)[C@H](O)[C@@](C)(O)C(=O)[C@@H](C)[C@H](O)[C@@H](C)C(=O)[C@@H](C)[C@H](O)[C@@H](C)/C=C/C(=O)O[C@@H]2[C@H](C)[C@H](CC1)O[C@]1(CC[C@H](C)[C@H](C[C@@H](C)O)O1)[C@H]2C [oligomycin]
averaged temporal response, counts equivalent to protons (CEP) versus time ([2]; 1 μM oligomycin introduced at 295 seconds after glucose, control without koningic acid, FIG. 18A): potentiated

Source: patent US20230324368A1, “Systems, Devices And Methods For Cell Analysis Using ChemFET Sensor Arrays” (Life Technologies Corporation, priority 2020, published 2023)
